{
  "source": "patent EP2325159A1",
  "about": "“Novel salts of rasagiline” (LEK Pharmaceuticals d.d., priority 2009, dated 2011)",
  "key": {"[1]": {"test": "physchem", "details": "water, Solubility of rasagiline salts in water"}, "[2]": {"test": "Solubility of rasagiline salts in water measured using Crystal16 (Avantium Technologies)"}},
  "data": [
    {"smiles": "C#CCN[C@@H]1CCc2ccccc21", "note": "[(+)-camphor-10-sulfonate, Rasagiline (+)-camphor-10-sulfonate]", "values": [
      {"measurement": "Solubility of rasagiline salts in water", "result": 175, "unit": "mg/mL"},
      {"measurement": "solubility", "setting": "[1]", "result": 113, "unit": "mg/mL"}
    ]},
    {"smiles": "C#CCN[C@@H]1CCc2ccccc21", "note": "[L-tartrate, Rasagiline L-tartrate, reference compound]", "values": [
      {"measurement": "solubility", "setting": "[2]", "result": "< 30", "unit": "mg/mL"}
    ]},
    {"smiles": "C#CCN[C@@H]1CCc2ccccc21", "note": "[L-mandelate, Rasagiline L-mandelate]", "values": [
      {"measurement": "solubility", "setting": "[2]; Solubility of rasagiline salts in water, 25 °C, H2O", "result": 70, "unit": "mg/mL"},
      {"measurement": "solubility", "setting": "[2]; Solubility of rasagiline salts in water, 40 °C, H2O", "result": 100, "unit": "mg/mL"}
    ]}
  ]
}
